Measurements reported in patent US8022205B2, “Pyrimidine derivatives as PI3K inhibitor and use thereof” (Chugai Seiyaku Kabushiki Kaisha, priority 2006, dated 2011).

How the values were obtained:
[1] = tested on: human prostate cancer cell line PC3; assay: Cell proliferation inhibitory activity (Cell Counting Kit-8), prostate cancer PC3; assay type: cell-based; settings: 96 h, PC3, 4 days
Description: (§1) The cell proliferation inhibitory activity was measured for compounds of the present invention represented by formula (I). Cancer cell proliferation inhibitory activity was measured using the Cell Counting Kit-8 (Dojindo). 2000 cells each of human colon cancer cell line HCT116 purchased from the American Type Culture Collection (Virginia, USA) were seeded into each well of a 96-well culture plate followed by the addition of a predetermined concentration of the compounds and cultivating in a CO2environment for 4 days at 37° C. On the fourth day of cultivating, the Cell Counting Kit-8 solution was added and absorbance (measuring wavelength: 450 nm, reference wavelength: 615 nm) was measured in accordance with the protocol provided with the kit.
(§2) Cancer cell proliferation inhibitory activity was also measured for human lung cancer cell line NCI-H460 and human prostate cancer cell line PC3 purchased from the American Type Culture Collection. 1000 and 3000 cells of NCI-H460 and PC3, respectively, were seeded into each well of a 96-well culture plate followed by testing in the same manner as the human colon cancer cell line and calculating the percentage of cell proliferation inhibition at 2.5 μM.

[2] = tested on: human colon cancer cell line HCT116; assay: Cell proliferation inhibitory activity (Cell Counting Kit-8), colon cancer HCT116; assay type: cell-based; settings: HCT-116, 96 h, HCT116, 4 days
Description: as §1

[3] = tested on: human lung cancer cell line NCI-H460; assay: Cell proliferation inhibitory activity (Cell Counting Kit-8), lung cancer NCI-H460; assay type: cell-based; settings: 96 h, NCI-H460, 4 days, read-out: Cell proliferation inhibitory activity (% Inhibition at 2.5 μM) Non-small cell lung cancer (NCI-H460)
Description: as §1, §2

human PI3K(p110α/p85α) = human PI3K(p110α/p85α) (Homo sapiens, UniProt P42336); assay: Measurement of PI3K inhibitory activity (AlphaScreen GST Detection Kit); assay type: biochemical; settings: 10 μM ATP, 4 μM PI(4,5)P2, read-out: Enzyme inhibitory activity (IC50, μM) PI3K α
Description: The inhibitory activity of compounds of the present invention represented by formula (I) were measured with human PI3K(p110α/p85α) prepared in a baculovirus expression system using the AlphaScreen GST Detection Kit (Perkin Elmer, Inc.). A predetermined concentration of the compound dissolved in dimethylsulfoxide (DMSO) and PI3K were mixed in a 384-well assay plate and after allowing to stand for 20 minutes at room temperature, 4 μM PI(4,5)P2 (Echelon Corporation) and 10 μM ATP (5 mM Hepes, pH 7.5, 2.5 mM MgCl2) were added to initiate the reaction. After reacting for 15 minutes at 37° C., GST-GRP1 expressed and purified from Escherichia coli, Anti-GST Acceptor Beads (Perkin Elmer, Inc.), Streptavidin Donor Beads (Perkin Elmer, Inc.) and biotin-PI(3,4,5) P3 (Echelon Corporation) (10 mM Tris-HCl pH 7.4, 150 mM NaCl, 7.5 mM EDTA, 1 mM DTT, 0.1% Tween 20) were added, and after allowing to stand for 1 hour at room temperature, light at 520 to 620 nm emitted as a result of exciting with light at 680 nm was measured with the Envision measuring instrument (Perkin Elmer, Inc.).
Test Example 1 described above can be performed according to “Analytical Biochemistry, 2003, 313, 234-245; Alexander Gray et al”.

human PI3K(p110α/p85α), sequence (P42336 whole entry): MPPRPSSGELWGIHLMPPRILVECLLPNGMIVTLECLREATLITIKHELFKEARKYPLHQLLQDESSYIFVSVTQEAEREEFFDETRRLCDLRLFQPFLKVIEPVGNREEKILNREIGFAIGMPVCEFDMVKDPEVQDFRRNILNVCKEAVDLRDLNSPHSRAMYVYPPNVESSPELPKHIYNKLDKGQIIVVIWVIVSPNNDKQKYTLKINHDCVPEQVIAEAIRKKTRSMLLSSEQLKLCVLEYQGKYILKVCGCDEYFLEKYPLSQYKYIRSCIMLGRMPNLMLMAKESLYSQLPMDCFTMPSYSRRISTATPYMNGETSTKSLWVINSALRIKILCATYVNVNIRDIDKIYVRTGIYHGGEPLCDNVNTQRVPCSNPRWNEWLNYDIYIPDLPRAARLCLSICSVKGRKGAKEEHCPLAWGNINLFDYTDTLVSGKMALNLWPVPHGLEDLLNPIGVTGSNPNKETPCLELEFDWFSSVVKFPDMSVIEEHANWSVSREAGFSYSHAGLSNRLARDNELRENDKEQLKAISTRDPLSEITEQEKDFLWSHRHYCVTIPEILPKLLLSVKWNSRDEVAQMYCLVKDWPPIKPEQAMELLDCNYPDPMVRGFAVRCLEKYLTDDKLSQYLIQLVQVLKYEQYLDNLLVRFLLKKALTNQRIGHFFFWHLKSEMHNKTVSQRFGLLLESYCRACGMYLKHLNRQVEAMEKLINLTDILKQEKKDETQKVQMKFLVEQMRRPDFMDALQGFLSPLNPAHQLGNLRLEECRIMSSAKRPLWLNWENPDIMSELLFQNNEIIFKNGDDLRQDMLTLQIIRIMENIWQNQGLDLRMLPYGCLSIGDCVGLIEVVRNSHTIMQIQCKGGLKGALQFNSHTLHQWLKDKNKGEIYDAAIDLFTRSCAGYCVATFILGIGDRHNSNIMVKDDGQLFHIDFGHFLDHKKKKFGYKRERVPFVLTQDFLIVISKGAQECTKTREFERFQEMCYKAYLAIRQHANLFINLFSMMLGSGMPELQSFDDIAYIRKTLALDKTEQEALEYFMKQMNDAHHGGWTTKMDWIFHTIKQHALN
human PI3K(p110α/p85α), sequence (P27986 whole entry partner): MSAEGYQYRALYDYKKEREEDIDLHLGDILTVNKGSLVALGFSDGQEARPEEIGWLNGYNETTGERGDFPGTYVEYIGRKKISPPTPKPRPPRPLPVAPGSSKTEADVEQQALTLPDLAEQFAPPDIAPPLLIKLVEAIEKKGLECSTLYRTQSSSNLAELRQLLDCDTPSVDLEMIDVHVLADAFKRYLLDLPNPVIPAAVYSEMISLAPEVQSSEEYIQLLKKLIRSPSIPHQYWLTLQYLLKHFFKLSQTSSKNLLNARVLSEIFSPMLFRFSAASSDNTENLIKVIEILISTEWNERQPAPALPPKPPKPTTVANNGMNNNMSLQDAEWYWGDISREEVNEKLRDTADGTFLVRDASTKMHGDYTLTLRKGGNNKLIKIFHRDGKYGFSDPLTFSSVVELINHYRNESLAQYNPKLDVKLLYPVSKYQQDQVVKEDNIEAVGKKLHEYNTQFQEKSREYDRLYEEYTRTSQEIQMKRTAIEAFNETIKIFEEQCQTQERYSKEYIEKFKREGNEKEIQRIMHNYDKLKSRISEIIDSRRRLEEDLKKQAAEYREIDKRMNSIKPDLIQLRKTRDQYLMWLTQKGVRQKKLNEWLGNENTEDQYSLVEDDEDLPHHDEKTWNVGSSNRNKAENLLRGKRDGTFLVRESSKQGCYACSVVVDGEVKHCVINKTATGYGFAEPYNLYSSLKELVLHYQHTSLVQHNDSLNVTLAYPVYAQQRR

| SMILES | inhibition at 2.5 µM [1] | inhibition at 2.5 µM [2] | inhibition at 2.5 µM [3] | IC50 (human PI3K(p110α/p85α)) |
| --- | --- | --- | --- | --- |
| Nc1ncc(-c2nc(N3CCOCC3)nc3c2CCN3c2ccc(C(=O)N3CCN(c4cccnc4)CC3)cc2)cn1 [Example D-20, {4-[4-(2-Amino-pyrimidin-5-yl)-2-morpholin-4-yl-5,6-dihydro-pyrrolo[2,3-d]pyrimidin-7-yl]-phenyl}-(4-pyridin-3-yl-piperazin-1-yl)-methanone] | 99% | 83% | 99% | 0.046 µM |
| Nc1ncc(-c2nc(N3CCOCC3)nc3c2CCN3c2ccc(C(=O)N3CCN(c4cccnc4)CC3)cc2F)cn1 [Example D-21, {4-[4-(2-Amino-pyrimidin-5-yl)-2-morpholin-4-yl-5,6-dihydro-pyrrolo[2,3-d]pyrimidin-7-yl]-3-fluoro-phenyl}-(4-pyridin-3-yl-piperazin-1-yl)-methanone] | 100% | 77% | 79% | 0.01 µM |
| Nc1ncc(-c2nc(N3CCOCC3)nc3c2CCN3c2ccc(C(=O)N3CCOCC3)cc2F)cn1 [Example D-22, {4-[4-(2-Amino-pyrimidin-5-yl)-2-morpholin-4-yl-5,6-dihydro-pyrrolo[2,3-d]pyrimidin-7-yl]-3-fluoro-phenyl}-morpholin-4-yl-methanone] | 79% | 82% | 83% | 0.042 µM |
| CN1CCN(c2cc(F)c(NC(=O)N3CCc4c(-c5cnc(N)nc5)nc(N5CCOCC5)nc43)c(F)c2)CC1 [Example D-23, 4-(2-Amino-pyrimidin-5-yl)-2-morpholin-4-yl-5,6-dihydro-pyrrolo[2,3-d]pyrimidine-7-carboxylic acid [4-(4-methyl-piperazin-1-yl)-2,6-difluoro-phenyl]-amide] | 89% | 99% | 100% | 0.006 µM |
| CCN1CCN(C(=O)c2cc(F)c(NC(=O)N3CCc4c(-c5cnc(N)nc5)nc(N5CCOCC5)nc43)c(F)c2)CC1 [Example D-24, 4-(2-Amino-pyrimidin-5-yl)-2-morpholin-4-yl-5,6-dihydro-pyrrolo[2,3-d]pyrimidine-7-carboxylic acid [4-(4-ethyl-piperazine-1-carbonyl)-2,6-difluoro-phenyl]-amide] | 91% | 88% | 94% | 0.034 µM |
| Cc1ccc(C(=O)N2CCOCC2)cc1N1CCc2c(-c3cnc(N)nc3)nc(N3CCOCC3)nc21 [Example D-25, {3-[4-(2-Amino-pyrimidin-5-yl)-2-morpholin-4-yl-5,6-dihydro-pyrrolo[2,3-d]pyrimidin-7-yl]-4-methyl-phenyl}-morpholin-4-yl-methanone] | 55% | 61% | 57% | 0.22 µM |
| CN1CCN(Cc2ccc(N3CCc4c(-c5cnc(N)nc5)nc(N5CCOCC5)nc43)cc2)CC1 [Example D-26, 5-{7-[4-(4-methyl-piperazin-1-ylmethyl)-phenyl]-2-morpholin-4-yl-6,7-dihydro-5H-pyrrolo[2,3-d]pyrimidin-4-yl}-pyrimidin-2-ylamine] | 82% | 87% | 84% | 0.048 µM |
| CN1CCN(C(=O)c2ccc(N3CCc4c(-c5cnc(N)nc5)nc(N5CCOCC5)nc43)cc2)CC1 [Example D-42, {4-[4-(2-Amino-pyrimidin-5-yl)-2-morpholin-4-yl-5,6-dihydro-pyrrolo[2,3-d]pyrimidin-7-yl]-phenyl}-(4-methyl-piperazin-1-yl)-methanone] | 88% | 91% | 94% | 0.014 µM |
| CCN1CCN(C(=O)c2ccc(N3CCc4c(-c5cnc(N)nc5)nc(N5CCOCC5)nc43)cn2)CC1 [Example D-95, {5-[4-(2-Amino-pyrimidin-5-yl)-2-morpholin-4-yl-5,6-dihydro-pyrrolo[2,3-d]pyrimidin-7-yl]-pyridin-2-yl}-(4-ethyl-piperazin-1-yl)-methanone] | 91% | 93% | 83% | 0.007 µM |
| CCN1CCN(C(=O)c2cccc(NC(=O)N3CCc4c(-c5cnc(N)nc5)nc(N5CCOCC5)nc43)c2)CC1 [Example D-101, 4-(2-Amino-pyrimidin-5-yl)-2-morpholin-4-yl-5,6-dihydro-pyrrolo[2,3-d]pyrimidine-7-carboxylic acid [3-(4-ethyl-piperazine-1-carbonyl)-phenyl]-amide] | 89% | 92% | 67% | 0.009 µM |
| Nc1ncc(-c2nc(N3CCOCC3)nc3c2CCN3C(=O)Nc2cccc(C(=O)N3CCOCC3)c2)cn1 [Example D-102, 4-(2-Amino-pyrimidin-5-yl)-2-morpholin-4-yl-5,6-dihydro-pyrrolo[2,3-d]pyrimidine-7-carboxylic acid [3-(morpholine-4-carbonyl)-phenyl]-amide] | 70% | 72% | 94% | 0.007 µM |
| CCN1CCN(C(=O)c2ccc(NC(=O)N3CCc4c(-c5cnc(N)nc5)nc(N5CCOCC5)nc43)cc2)CC1 [Example D-103, 4-(2-Amino-pyrimidin-5-yl)-2-morpholin-4-yl-5,6-dihydro-pyrrolo[2,3-d]pyrimidine-7-carboxylic acid [4-(4-ethyl-piperazine-1-carbonyl)-phenyl]-amide] | 80% | 74% | 92% | 0.006 µM |
| Nc1ncc(-c2nc(N3CCOCC3)nc3c2CCN3C(=O)Nc2ccc(C(=O)N3CCOCC3)cc2)cn1 [Example D-104, 4-(2-Amino-pyrimidin-5-yl)-2-morpholin-4-yl-5,6-dihydro-pyrrolo[2,3-d]pyrimidine-7-carboxylic acid [4-(morpholine-4-carbonyl)-phenyl]-amide] | 34% | 37% | 67% | 0.006 µM |
| Nc1ncc(-c2nc(N3CCOCC3)nc3c2CCN3C(=O)Nc2ccc(NCCN3CCOCC3)cc2)cn1 [Example D-108, 4-(2-Amino-pyrimidin-5-yl)-2-morpholin-4-yl-5,6-dihydro-pyrrolo[2,3-d]pyrimidine-7-carboxylic acid [4-(2-morpholin-4-yl-ethylamino)-phenyl]-amide] | 90% | 92% | 95% | 0.007 µM |
| Nc1ncc(-c2nc(N3CCOCC3)nc3c2CCN3c2ccc(C(=O)N3CCNCC3)nc2)cn1 [Example D-128, {5-[4-(2-Amino-pyrimidin-5-yl)-2-morpholin-4-yl-5,6-dihydro-pyrrolo[2,3-d]pyrimidin-7-yl]-pyridin-2-yl}-piperazin-1-yl-methanone] | 60% | 81% | 95% | 0.008 µM |
| Cc1cc(C(=O)N2CCOCC2)ccc1N1CCc2c(-c3cnc(N)nc3)nc(N3CCOCC3)nc21 [Example D-137, {4-[4-(2-Amino-pyrimidin-5-yl)-2-morpholin-4-yl-5,6-dihydro-pyrrolo[2,3-d]pyrimidin-7-yl]-3-methyl-phenyl}-morpholin-4-yl-methanone] | 71% | 60% | 52% | 0.092 µM |
| CCN1CCN(C(=O)c2ccc(N3CCc4c(-c5cnc(N)nc5)nc(N5CCOCC5)nc43)c(F)c2)CC1 [Example D-138, {4-[4-(2-Amino-pyrimidin-5-yl)-2-morpholin-4-yl-5,6-dihydro-pyrrolo[2,3-d]pyrimidin-7-yl]-3-fluoro-phenyl}-(4-ethyl-piperazin-1-yl)-methanone] | 85% | 82% | 86% | 0.11 µM |
| CN(CCN1CCOCC1)C(=O)c1ccc(N2CCc3c(-c4cnc(N)nc4)nc(N4CCOCC4)nc32)cc1 [Example D-139, 4-[4-(2-Amino-pyrimidin-5-yl)-2-morpholin-4-yl-5,6-dihydro-pyrrolo[2,3-d]pyrimidin-7-yl]-N-methyl-N-(2-morpholin-4-yl-ethyl)-benzamide] | 89% | 90% | 72% | 0.009 µM |
